From patent US20060084691A1, “Combined treatment with bortezomib and an epidermal growth factor receptor kinase inhibitor” (priority 2004, published 2006)
Structures can show the parent of a compound that is named as a salt.

Key:
Assay type in all cases: cell-based, human
[1] = tested on: ubiquitinated p53 in A549 cells; assay: p53 expression by western blot; conditions: A549 cells with wild type p53, single agent
Method: Cells were scraped from the culture, washed twice with PBS, and then suspended in 60-100 μL of Western blot lysis buffer containing 50 mM Tris-HCl (pH 7.5), 250 mM NaCl, 1 mM EDTA, 1 mM EGTA, 1 mM NaF, 1 mM phenylmethylsulfonyl fluoride, 1 mM DTT, 20 μg/mL leupeptin, 20 μg/mL aprotinin, 0.1% Triton X-100 and 1% SDS at 0-4° C. for 15 min. After centrifugation at 1500× g for 10 min at 0° C., the supernatants were collected, and the proteins were separated on 10% SDS-PAGE. After electrophoresis, protein blots were transferred to a nitrocellulose membrane. The membrane was blocked with 5% nonfat milk powder in TBST and incubated overnight with the corresponding primary antibodies at 4° C. After washing three times with TBST, the membrane was incubated at room temperature for 1 h with horseradish peroxidase-conjugated secondary antibody diluted with TBST (1:1000). The detected protein signals were visualized by an enchanced cheiluminescence reaction system (Amersham, Arlington Heights, Ill.).
A549 cells with wild type p53 were exposed to either bortezomib or erlotinib alone, or in combination concomitantly or sequentially 24-hr apart, and p53 expression was assessed by western blot.

[2] = tested on: H322; assay: MTT cytotoxicity assay, H322; conditions: H322, 72 h
[3] = tested on: H358; assay: MTT cytotoxicity assay, H358; conditions: H358, 72 h
[4] = tested on: A549; assay: MTT cytotoxicity assay, A549; conditions: A549, 72 h
[5] = tested on: H1299; assay: MTT cytotoxicity assay, H1299; conditions: H1299, 72 h
[6] = tested on: EGF-induced EGFR-phosphorylation; assay: EGF-induced EGFR phosphorylation in sensitive and resistant cells; conditions: both sensitive and resistant cells
Method: Cells were scraped from the culture, washed twice with PBS, and then suspended in 60-100 μL of Western blot lysis buffer containing 50 mM Tris-HCl (pH 7.5), 250 mM NaCl, 1 mM EDTA, 1 mM EGTA, 1 mM NaF, 1 mM phenylmethylsulfonyl fluoride, 1 mM DTT, 20 μg/mL leupeptin, 20 μg/mL aprotinin, 0.1% Triton X-100 and 1% SDS at 0-4° C. for 15 min. […] After electrophoresis, protein blots were transferred to a nitrocellulose membrane. The membrane was blocked with 5% nonfat milk powder in TBST and incubated overnight with the corresponding primary antibodies at 4° C. After washing three times with TBST, the membrane was incubated at room temperature for 1 h with horseradish peroxidase-conjugated secondary antibody diluted with TBST (1:1000). The detected protein signals were visualized by an enchanced cheiluminescence reaction system (Amersham, Arlington Heights, Ill.).

Row | SMILES | p53 expression (western blot) [1] | Sensitivity (cytotoxicity) [2] | Sensitivity (cytotoxicity) [3] | Sensitivity (cytotoxicity) [4] | Sensitivity (cytotoxicity) [5] | EGF-induced EGFR-phosphorylation [6]
1 | CC(C)C[C@H](NC(=O)[C@H](Cc1ccccc1)NC(=O)c1cnccn1)B(O)O [bortezomib] | accumulation of ubiquitinated p53 | – | – | – | – | –
2 | C#Cc1cccc(Nc2ncnc3cc(OCCOC)c(OCCOC)cc23)c1 [erlotinib HCl, [6,7-bis(2-methoxyethoxy)-4-quinazolin-4-yl]-(3-ethynylphenyl) amine] | – | sensitive | sensitive | resistant | resistant | inhibits
